Results taken from PMC11578424, “Discovery of novel 2,4-diarylaminopyrimidine hydrazone derivatives as potent anti-thyroid cancer agents capable of inhibiting FAK” (Journal of Enzyme Inhibition and Medicinal Chemistry, 2024).
Like-named read-outs stand apart in the source and are kept apart here.

Experiments:
[1] = test system: thyroid cancer cells TPC-1; assay: MTT antiproliferative assay; assay type: cell-based; conditions: MTT assay, 48 h, average with SD (n = 3, duplicate), read-out: IC50 (μM), antiproliferative activity against thyroid cancer cells TPC-1
Protocol: Thyroid cancer cells TCP-1 were provided by Wuhan Servicebio Co., Ltd. TCP-1 cells are cultured in RPMI-1640 medium supplemented with 10% foetal bovine serum (FBS), 100 U/mL penicillin, and 0.1 mg/mL streptomycin. All cells are maintained in a humidified incubator at 37 °C with 5% CO2.
The TCP-1 cell line is seeded into a 96-well plate and incubated under conditions of 37 °C and 5% CO2. After the cells adhere, different concentrations of compounds are added and the incubation continues for 48 h under the same conditions. Subsequently, MTT reagent is added to the medium and the incubation is continued for an additional 4 h at 37 °C. After the incubation, the medium is aspirated, and 150 μL of DMSO solution is added to dissolve the purple-blue crystals by shaking. The absorbance of the solution is measured at a wavelength of 490 nm. The IC50 value of the compounds is calculated using SPSS software version 20.0.

MCF7 cells = conditions: cited from earlier work

Row | SMILES | melting point [°C] | IC50 ([1]; Homo sapiens, TPC1, 48 h) [µM] | IC50 (MCF7 cells; read-out: IC50, proliferative activity of MCF7 cells) [nM] | IC50 (MCF7 cells; read-out: IC50, antiproliferative activity against MCF7 cells) [nM] | IC50 [1] [µM]
1 | CNC(=O)c1ccccc1Nc1nc(N/N=C/c2ccc(C)cc2)ncc1Cl [14b, (E)-2-((5-chloro-2–(2-(4-methylbenzylidene)hydrazineyl)pyrimidin-4-yl)amino)-N-methylbenzamide] | 207.1 to 208.1 | 0.296 ± 0.021 | – | – | –
2 | CNC(=O)c1ccccc1Nc1nc(N/N=C/c2ccc(C(F)(F)F)cc2)ncc1Cl [14e, (E)-2-((5-chloro-2–(2-(4-(trifluoromethyl)benzylidene)hydrazineyl)pyrimidin-4-yl)amino)-N-methylbenzamide] | 206.6 to 208.8 | 0.193 ± 0.029 | – | – | –
3 | CNC(=O)c1ccccc1Nc1nc(N/N=C/c2ccc(O)cc2)ncc1Cl [14d, (E)-2-((5-chloro-2–(2-(4-hydroxybenzylidene)hydrazineyl)pyrimidin-4-yl)amino)-N-methylbenzamide] | 187.8 to 189.2 | 0.255 ± 0.025 | – | – | –
4 | CNC(=O)c1ccccc1Nc1nc(N/N=C/c2ccncc2)ncc1Cl [14 u, (E)-2-((5-chloro-2–(2-(pyridin-4-ylmethylene)hydrazineyl)pyrimidin-4-yl)amino)-N-methylbenzamide] | 215.1 to 216.8 | 0.189 ± 0.005 | – | – | –
5 | CNC(=O)c1ccccc1Nc1nc(N/N=C/c2ccc(Cl)cc2)ncc1Cl [14 g, (E)-2-((5-chloro-2–(2-(4-chlorobenzylidene)hydrazineyl)pyrimidin-4-yl)amino)-N-methylbenzamide] | 194.1 to 195.8 | 0.409 ± 0.093 | – | – | –
6 | CNC(=O)c1ccccc1Nc1nc(N/N=C/c2ccc(OC)c(F)c2)ncc1Cl [14q, (E)-2-((5-chloro-2–(2-(3-fluoro-4-methoxybenzylidene)hydrazineyl)pyrimidin-4-yl)amino)-N-methylbenzamide] | 234.1 to 235.7 | 0.386 ± 0.047 | – | – | –
7 | CNC(=O)c1ccccc1Nc1nc(N/N=C/c2ccc3[nH]ccc3c2)ncc1Cl [14aa, (E)-2-((2–(2-((1H-indol-5-yl)methylene)hydrazineyl)-5-chloropyrimidin-4-yl)amino)-N-methylbenzamide] | 218.1 to 219.9 | 0.331 ± 0.012 | – | – | –
8 | CNC(=O)c1ccccc1Nc1nc(N/N=C/c2ccc(C#N)cc2)ncc1Cl [14j, (E)-2-((5-chloro-2–(2-(4-cyanobenzylidene)hydrazineyl)pyrimidin-4-yl)amino)-N-methylbenzamide] | 200.7 to 202.1 | 0.126 ± 0.011 | – | – | –
9 | CNC(=O)c1ccccc1Nc1nc(N/N=C/c2c[nH]c3ccccc23)ncc1Cl [14x, (E)-2-((2–(2-((1H-indol-3-yl)methylene)hydrazineyl)-5-chloropyrimidin-4-yl)amino)-N-methylbenzamide] | 203.3 to 204.8 | 0.357 ± 0.01 | – | – | –
10 | CNC(=O)c1ccccc1Nc1nc(N/N=C/c2ccc(Br)cc2)ncc1Cl [14h, (E)-2-((2–(2-(4-bromobenzylidene)hydrazineyl)-5-chloropyrimidin-4-yl)amino)-N-methylbenzamide] | 192.1 to 193.2 | 0.59 ± 0.024 | – | – | –
11 | CNC(=O)c1ccccc1Nc1nc(N/N=C/c2ccc([N+](=O)[O-])cc2)ncc1Cl [14i, (E)-2-((5-chloro-2–(2-(4-nitrobenzylidene)hydrazineyl)pyrimidin-4-yl)amino)-N-methylbenzamide] | 201.7 to 202.8 | 0.157 ± 0.008 | – | – | –
12 | CNC(=O)c1ccccc1Nc1nc(N/N=C/c2ccc(OC)c(OC)c2)ncc1Cl [14o, (E)-2-((5-chloro-2–(2-(3,4-dimethoxybenzylidene)hydrazineyl)pyrimidin-4-yl)amino)-N-methylbenzamide] | 214.1 to 215.2 | 0.434 ± 0.012 | – | – | –
13 | CNC(=O)c1ccccc1Nc1nc(N/N=C/c2cn(C)c3ccccc23)ncc1Cl [14 y] | 217.2 to 219.1 | 0.425 ± 0.023 | – | – | –
14 | CNC(=O)c1ccccc1Nc1nc(N/N=C/c2cccc(C(F)(F)F)c2)ncc1Cl [14 m, (E)-2-((5-chloro-2–(2-(3-(trifluoromethyl)benzylidene)hydrazineyl)pyrimidin-4-yl)amino)-N-methylbenzamide] | 207.1 to 209.8 | 0.693 ± 0.017 | – | – | –
15 | CNC(=O)c1ccccc1Nc1nc(N/N=C/c2cccc(OC)c2)ncc1Cl [14k, (E)-2-((5-chloro-2–(2-(3-methoxybenzylidene)hydrazineyl)pyrimidin-4-yl)amino)-N-methylbenzamide] | 199.3 to 200.4 | 0.517 ± 0.031 | – | – | –
16 | CNC(=O)c1ccccc1Nc1nc(N/N=C/c2ccc3cc[nH]c3c2)ncc1Cl [14ab, (E)-2-((2–(2-((1H-indol-6-yl)methylene)hydrazineyl)-5-chloropyrimidin-4-yl)amino)-N-methylbenzamide] | 216.1 to 217.7 | 0.364 ± 0.015 | – | – | –

Row | SMILES | melting point [°C] | IC50 ([1]; Homo sapiens, TPC1, 48 h) [µM] | IC50 (MCF7 cells; read-out: IC50, proliferative activity of MCF7 cells) [nM] | IC50 (MCF7 cells; read-out: IC50, antiproliferative activity against MCF7 cells) [nM] | IC50 [1] [µM]
17 | CNC(=O)c1ccccc1Nc1nc(N/N=C/c2cccs2)ncc1Cl [14v, (E)-2-((5-chloro-2–(2-(thiophen-2-ylmethylene)hydrazineyl)pyrimidin-4-yl)amino)-N-methylbenzamide] | 214.6 to 216.1 | 0.153 ± 0.005 | – | – | –
18 | Cn1c2nc(N/N=C/c3cccc(Br)c3)nc(=O)c-2cc2ccccc21 [compound 9] | – | – | 0.1 | – | –
19 | CNC(=O)c1ccccc1Nc1nc(N/N=C/c2ccc(F)cc2F)ncc1Cl [14r, (E)-2-((5-chloro-2–(2-(2,4-difluorobenzylidene)hydrazineyl)pyrimidin-4-yl)amino)-N-methylbenzamide] | 243.2 to 245.1 | 0.122 ± 0.032 | – | – | –
20 | CNC(=O)c1ccccc1Nc1nc(N/N=C/c2cccnc2)ncc1Cl [14t, (E)-2-((5-chloro-2–(2-(pyridin-3-ylmethylene)hydrazineyl)pyrimidin-4-yl)amino)-N-methylbenzamide] | 217.1 to 218.1 | 0.243 ± 0.001 | – | – | –
21 | CNC(=O)c1ccccc1Nc1nc(Nc2ccc(N3CCOCC3)cc2OC)ncc1Cl [TAE-226, reference compound] | – | 1.08 ± 0.023 | – | – | –
22 | CNC(=O)c1ccccc1Nc1nc(N/N=C/c2ccc(OC)cc2)ncc1Cl [14c, (E)-2-((5-chloro-2–(2-(4-methoxybenzylidene)hydrazineyl)pyrimidin-4-yl)amino)-N-methylbenzamide] | 187.7 to 188.9 | 0.257 ± 0.004 | – | – | –
23 | CNC(=O)c1ccccc1Nc1nc(N/N=C(\C)c2ccc(F)cc2)ncc1Cl [14ad, (E)-2-((5-chloro-2–(2-(1–(4-fluorophenyl)ethylidene)hydrazineyl)pyrimidin-4-yl)amino)-N-methylbenzamide] | 222.6 to 223.8 | 1.46 ± 0.066 | – | – | –
24 | CNC(=O)c1ccccc1Nc1nc(N/N=C/c2ccc(OC)cc2F)ncc1Cl [14p, (E)-2-((5-chloro-2–(2-(2-fluoro-4-methoxybenzylidene)hydrazineyl)pyrimidin-4-yl)amino)-N-methylbenzamide] | 218.1 to 219.4 | 0.228 ± 0.065 | – | – | –
25 | CNC(=O)c1ccccc1Nc1nc(N/N=C/c2ccc(OC)cc2OC)ncc1Cl [14n, (E)-2-((5-chloro-2–(2-(2,4-dimethoxybenzylidene)hydrazineyl)pyrimidin-4-yl)amino)-N-methylbenzamide] | 213.1 to 214.7 | – | – | – | –
26 | CNC(=O)c1ccccc1Nc1nc(N/N=C/c2cccc(F)c2)ncc1Cl [14 l, (E)-2-((5-chloro-2–(2-(3-fluorobenzylidene)hydrazineyl)pyrimidin-4-yl)amino)-N-methylbenzamide] | 203.3 to 205.1 | 0.428 ± 0.009 | – | – | –
27 | CNC(=O)c1ccccc1Nc1nc(N/N=C(\C)c2ccc(OC)cc2)ncc1Cl [14ac, (E)-2-((5-chloro-2–(2-(1–(4-methoxyphenyl)ethylidene)hydrazineyl)pyrimidin-4-yl)amino)-N-methylbenzamide] | 216.7 to 217.1 | 0.612 ± 0.016 | – | – | –
28 | CNC(=O)c1ccccc1Nc1nc(N/N=C/c2c[nH]c3ccc(OC)cc23)ncc1Cl [14z, (E)-2-((5-chloro-2–(2-((5-methoxy-1H-indol-3-yl)methylene) hydrazineyl)pyrimidin-4-yl)amino)-N-methylbenzamide] | 217.1 to 218.2 | 0.624 ± 0.044 | – | – | –
29 | C/C(=N\N=c1/[nH]c2cc(F)c(F)cc2n1C)c1ncccn1 [compound 8] | – | – | – | 3.3 | –
30 | CNC(=O)c1ccccc1Nc1nc(N/N=C/c2ccc3cccnc3c2)ncc1Cl [14w, (E)-2-((5-chloro-2–(2-(quinolin-7-ylmethylene)hydrazineyl)pyrimidin-4-yl)amino)-N-methylbenzamide] | 241.7 to 242.1 | 0.413 ± 0.015 | – | – | –
31 | CNC(=O)c1ccccc1Nc1nc(N/N=C/c2ccccc2)ncc1Cl [14a, (E)-2-((2–(2-benzylidenehydrazineyl)-5-chloropyrimidin-4-yl)amino)-N-methylbenzamide] | 199.1 to 202.1 | 0.306 | – | – | 0.246 ± 0.038
32 | CNC(=O)c1ccccc1Nc1nc(N/N=C/c2ccccn2)ncc1Cl [14s, (E)-2-((5-chloro-2–(2-(pyridin-2-ylmethylene)hydrazineyl)pyrimidin-4-yl)amino)-N-methylbenzamide] | 217.1 to 218.2 | 0.272 ± 0.016 | – | – | –
